Assay results from patent US9005673B2, “Preservative and additive for food and feed” (priority 2005, dated 2015).

Assay: Contact of acid solutions with human skin
Conditions: solution with a pH of less than 0.5

Compound: O=S(=O)(O)O [sulfuric acid]
- irritation of a hand put into the solution: an irritation would occur
